Experiments:
[1] = system: Human Embryo Kidney (HEK) 293 cells; experiment: Hypothermia/rewarming injury of HEK cells, trypan blue viability count; type: cell-based; details: for viability at 0.01 µM / viability at 0.1 µM / viability at 1 µM / viability at 10 µM / viability at 100 µM / viability at 1000 µM: Homo sapiens, HEK293, 24 h, read-out: % cells that survived; for viability at 0.01 µM / viability at 0.1 µM / viability at 1 µM / viability at 10 µM / viability at 100 µM / viability at 1000 µM / % cells that survived: 24 h at 4° C., 24 h rewarming; for % cells that survived, Mean: mean over the tested concentrations
[2] = system: blood platelets; experiment: Cold storage of PRP blood platelets, aggregation of thrombocytes after storage; type: cell-based; set-up: key: − means that most of the thrombocytes were aggregated; a + indicates that a few cells were still viable but some cells aggregated; a ++ indicates that almost all cells were viable; details: 30 mM; PRP platelets stored at 4° C.; 264 hours
Procedure: PRP platelets were harvested and 2.1 ml was suspended in Poly Propylene tubes of 5 ml, closed with a stop.
Several compounds according to the invention were added to the blood platelets directly after preparing the PRP plasma and incubated during 10 minutes at 37° C. or 30 minutes at room temperature. The blood platelets with the compound were then stored at 4° C.
A control was stored under shaking conditions at room temperature. Another control was stored at 4° C. without the addition of a compound.
A sample was taken out of each tube after 264 hours after addition of the compound and tested as follows: • The color and coagulation properties were visually analysed. • The thrombocyte cells that survived were counted and it was evaluated whether the thrombocytes were aggregated. • It was evaluated if the thrombocytes still were able to function after stimulation by the addition of ADP or under influence of collagen in a 96 well plate. • The adhesion was evaluated, meaning the ability of the platelets to bind collagen in a 6 well plate preincubated with collagen. • Via an ELISA assay, it was evaluated whether thromboxane was secreted from the platelets. Thromboxane facilitates aggregation and is produced by activated blood platelets.
Table 3 provides an overview of the results of the addition of the compounds to the blood platelets and evaluates the aggregation of the thrombocytes after addition of the compound according to the invention and cooling until 4° C.

| Structure (SMILES) | viability at 0.01 µM ([1]; 10 nM) | viability at 0.1 µM ([1]; 100 nM) | viability at 1 µM ([1]; 1 μM) | viability at 10 µM ([1]; 10 μM) | viability at 100 µM ([1]; 100 μM) | viability at 1000 µM ([1]; 1 mM) | % cells that survived, Mean [1] | Aggregation of blood platelets after storage [2] | % cells that survived ([1]; 10 nM) | % cells that survived ([1]; 100 nM) | % cells that survived ([1]; 1 μM) | % cells that survived ([1]; 10 μM) | % cells that survived ([1]; 100 μM) | % cells that survived ([1]; 1 mM) |
| --- | --- | --- | --- | --- | --- | --- | --- | --- | --- | --- | --- | --- | --- | --- |
| Cc1c2c(c(C(C)C)c(O)c1C(C)C)CCC(C)(C(=O)N1CCN(CC(=O)O)CC1)O2 (stereo not drawn) [SUL - 139, 2-(4-(6-hydroxy-5,7-diisopropyl-2,8-dimethylchroman-2-carbonyl)piperazin-1-yl)acetic acid] | 13.3% | 4.57% | 4.26% | 90% | 89.7% | 80.3% | 47% | + | – | – | – | – | – | – |
| CCCCNCC1(C)CCc2c(C)c(O)c(C)c(C)c2O1 (stereo not drawn) [SUL - 117, 2-((butylamino)methyl)-2,5,7,8-tetramethylchroman-6-ol] | 0.72% | 89.3% | 93.6% | 84.8% | 90.1% | 0% | 60% | + | – | – | – | – | – | – |
| Cc1c(C)c2c(c(C)c1O)CC[C@](C)(C(=O)N1CCN(CC(=O)O)CC1)O2 [SUL - 142, (R)-2-(4-(6-hydroxy-2,5,7,8-tetramethylchroman-2-carbonyl)piperazin-1-yl)acetic acid] | 0% | 73% | 98.5% | 99.2% | 99.4% | 91.9% | 77% | ++ | – | – | – | – | – | – |
| Cc1c(C)c2c(c(C)c1O)CCC(C)(C(=O)N1CCC[C@H]1C(=O)O)O2 (mixture of isomers) [SUL - 143, (2S)-1-(6-hydroxy-2,5,7,8-tetramethylchroman-2-carbonyl)pyrrolidine-2-carboxylic acid] | 30.6% | 35% | 14.9% | 49.5% | 97.8% | 98.4% | 54% | + | – | – | – | – | – | – |
| Cc1c(C)c2c(c(C)c1O)CC[C@](C)(C(=O)NO)O2 [SUL - 125, (R)-N,6-dihydroxy-2,5,7,8-tetramethylchroman-2-carboxamide] | 8.09% | 0% | 97.3% | 96.7% | 88.4% | 22.5% | 52% | + | – | – | – | – | – | – |
| Cc1c(C)c2c(c(C)c1O)CCC(C)(C(=O)N1CCN(CCO)CC1)O2 (stereo not drawn) [SUL - 132, (6-hydroxy-2,5,7,8-tetramethylchroman-2-yl)(4-(2-hydroxyethyl)piperazin-1-yl)methanone] | – | – | – | – | – | – | 89% | + | 93.96% | 91.41% | 88.30% | 91.11% | 89.73% | 80.51% |
| CNCCNC(=O)C1(C)CCc2c(C)c(O)c(C)c(C)c2O1 (stereo not drawn) [SUL - 100, 6-hydroxy-2,5,7,8-tetramethyl-N-(2-(methylamino)ethyl)chroman-2-carboxamide] | 77.8% | 76.9% | 63.2% | 68.8% | 55.6% | 0% | 57% | + | – | – | – | – | – | – |
| Cc1c(C)c2c(c(C)c1O)CC[C@@](C)(C(=O)NO)O2 [SUL - 126, (S)-N,6-dihydroxy-2,5,7,8-tetramethylchroman-2-carboxamide] | 0% | 0% | 68.1% | 92.7% | 98.6% | 80.2% | 57% | + | – | – | – | – | – | – |
| Cc1c(C)c2c(c(C)c1O)CCC(C)(C(=O)N[C@H](C)CO)O2 (stereo partly drawn) [SUL - 120, 6-hydroxy-N-((R)-1-hydroxypropan-2-yl)-2,5,7,8-tetramethylchroman-2-carboxamide] | 17.6% | 65.3% | 95.5% | 91.6% | 88.7% | 81.5% | 73% | + | – | – | – | – | – | – |

— US11006626B2, “Compounds for protection of cells” (Sulfateq B.V., priority 2012, dated 2021)
